# From the supplement of paper PMC10307832
# Tests used:
# Experiment in all cases: relative viability (nuclei count vs DMSO), 5 days (fraction); higher = more cells survive
# [1] = compound: O=C(Nc1cccc(C(F)(F)F)c1)Nc1cc(S(=O)(=O)NC2CC2)ccc1-c1ccsc1 [AGI-6780] + CC(=O)Nc1cccc(-n2c(=O)n(C3CC3)c(=O)c3c(Nc4ccc(I)cc4F)n(C)c(=O)c(C)c32)c1 [Trametinib] (partner 0.02 µM)
# Summary of the method: (§1)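 Each reported value is a median over duplicate plates. It expresses relative viability: treated-well nuclei count divided by vehicle-well nuclei count. Lung cancer cell lines in 1536-well plates were dosed by pin tool a day after seeding, alone with one drug or with a fixed anchor-drug dose plus five library-drug doses (not always all listed) in √10 steps, and nuclei were counted after 5 days.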
# [2] = compound: O=C(Nc1cccc(C(F)(F)F)c1)Nc1cc(S(=O)(=O)NC2CC2)ccc1-c1ccsc1 [AGI-6780] + CC1(C)CCC(c2ccc(Cl)cc2)=C(CN2CCN(c3ccc(C(=O)NS(=O)(=O)c4ccc(N[C@H](CCN5CCOCC5)CSc5ccccc5)c(S(=O)(=O)C(F)(F)F)c4)cc3)CC2)C1 [Navitoclax] (partner 0.5 µM)
# Summary of the method: as §1
# [3] = compound: O=C(Nc1cccc(C(F)(F)F)c1)Nc1cc(S(=O)(=O)NC2CC2)ccc1-c1ccsc1 [AGI-6780] + N=C(N)NC(=N)NCCc1ccccc1 [Phenformin] (partner 250 µM)
# Summary of the method: as §1
# [4] = compound: O=C(Nc1cccc(C(F)(F)F)c1)Nc1cc(S(=O)(=O)NC2CC2)ccc1-c1ccsc1 [AGI-6780] + Nc1nc2[nH]cc(CCc3ccc(C(=O)N[C@@H](CCC(=O)O)C(=O)O)cc3)c2c(=O)[nH]1 [Pemetrexed] (partner 0.2 µM)
# Summary of the method: as §1
Cell Line,relative viability ([1]; first compound 0.08 µM),relative viability ([1]; first compound 0.253 µM),relative viability ([1]; first compound 0.8 µM),relative viability ([1]; first compound 2.53 µM),relative viability ([1]; first compound 8 µM),relative viability ([2]; first compound 0.08 µM),relative viability ([2]; first compound 0.253 µM),relative viability ([2]; first compound 0.8 µM),relative viability ([2]; first compound 2.53 µM),relative viability ([2]; first compound 8 µM),relative viability ([3]; first compound 0.08 µM),relative viability ([3]; first compound 0.253 µM),relative viability ([3]; first compound 0.8 µM),relative viability ([3]; first compound 2.53 µM),relative viability ([3]; first compound 8 µM),relative viability ([4]; first compound 0.08 µM),relative viability ([4]; first compound 0.253 µM),relative viability ([4]; first compound 0.8 µM),relative viability ([4]; first compound 2.53 µM),relative viability ([4]; first compound 8 µM)
NCI-H460,0.286,0.149,0.117,0.1,0.167,1.14,1.03,1.04,1.14,1.14,0.529,0.527,0.568,0.585,0.524,0.0559,0.0709,0.0574,0.0584,0.0641
NCI-H1793,0.393,0.359,0.479,0.416,0.423,0.977,0.365,0.455,0.386,0.519,0.458,0.406,0.386,0.264,0.365,0.838,0.926,0.964,0.671,0.959
NCI-H2347,0.276,0.289,0.278,0.287,0.274,0.7,0.839,0.552,0.605,0.841,0.424,0.574,0.378,0.351,0.373,0.44,0.439,0.428,0.448,0.454
HCC-15,0.369,0.426,0.349,0.309,0.369,0.727,0.698,0.743,0.641,0.684,0.551,0.525,0.505,0.428,0.47,0.227,0.245,0.204,0.215,0.207
NCI-H1915,0.314,0.304,0.298,0.246,0.274,0.818,0.781,0.746,0.808,0.738,0.37,0.371,0.369,0.374,0.376,0.478,0.491,0.552,0.538,0.452
NCI-H1734,0.74,0.646,0.63,0.474,0.758,0.889,0.814,0.778,–,0.861,0.395,0.427,0.45,0.305,0.377,0.479,0.438,0.429,0.426,0.42
NCI-H2342,0.866,0.72,0.772,0.723,0.981,–,–,–,–,–,0.572,0.759,0.636,0.53,0.793,0.777,0.781,0.835,0.715,0.85
COR-L 105,0.465,0.576,0.464,0.397,0.351,0.918,0.62,0.841,0.862,0.763,0.407,0.461,0.507,0.524,0.539,1.26,0.965,1.17,0.923,1.08
PC-14,0.802,0.764,1.02,0.731,0.752,1.06,0.967,0.849,1.01,0.952,0.464,0.665,0.576,0.581,0.695,0.143,0.147,0.141,0.16,0.134
NCI-H2087,0.253,0.183,0.218,0.213,0.194,1.08,0.986,0.98,0.982,0.97,0.5,0.502,0.471,0.438,0.492,0.702,0.637,0.696,0.636,0.754
NCI-H1395,0.984,1.01,1.04,0.975,1.06,1.25,1.17,1.2,–,1.23,0.469,0.46,0.45,0.397,0.449,0.779,0.975,0.945,0.729,0.843
NCI-H1648,0.47,0.53,0.377,0.409,0.433,–,–,–,–,–,–,–,–,–,–,0.655,0.884,0.864,0.841,0.779
NCI-H520,0.652,0.628,0.58,0.593,0.666,1.04,1.12,1.18,1.05,1.05,0.733,0.699,0.743,0.431,0.622,0.803,0.625,0.669,0.586,0.637
A549,–,–,–,–,–,1.31,1.27,1.37,1.13,1.23,0.153,0.177,0.25,0.133,0.175,–,–,–,–,–
LC-2-ad,0.917,0.873,0.931,0.964,0.917,0.552,0.468,0.505,0.249,0.659,0.623,0.59,0.605,0.54,0.505,0.278,0.254,0.255,0.253,0.284
EMC-BAC-2,–,0.909,0.896,0.752,0.842,1.19,1.14,1.23,1.14,1.17,0.57,0.602,0.508,0.456,0.531,–,0.434,0.43,0.55,0.44
EBC-1,–,–,–,–,–,0.407,0.429,0.365,0.512,0.38,–,–,–,–,–,–,–,–,–,–
NCI-H1792,0.532,0.332,0.611,–,0.483,0.377,0.613,0.834,0.629,0.625,0.159,0.279,0.195,0.241,0.345,0.993,0.842,0.79,–,0.844
